Assay results: US6251903A, “Alkyl, azido, alkoxy, and fluoro-substituted and fused quinoxalinediones and the use thereof as glycine receptor antagonist” (priority 2000, dated 2001)
Like-named read-outs stand apart in the source and are kept apart here.

Tests used:
[1] = cited from earlier work
[2] = system: glycine binding site of the NMDA receptor; conditions: literature; cited from earlier work
[3] = molecular target: T1, glycine binding site of the NMDA receptor (Rattus norvegicus, UniProt P35439); experiment: 1 μM glycine-stimulated [3H]-MK801 binding assay, brain membrane homogenates
T1 construct: rat brain membrane homogenates that are enriched in NMDA receptors; tissue Pel-Freez, Rogers, Arkansas (frozen rat brains); host or cells: rat brain membrane homogenate
Method: This assay takes advantage of the dependence of the binding of [^3 H]-MK801 to the PCP receptor inside the pore of the NMDA channel on the presence of both glutamate and glycine. In the absence of glycine, but in the presence of glutamate, [^3 H]-MK801 cannot bind effectively to the PCP receptor because the NMDA channel remains closed and access of [^3 H]-MK801 to the PCP receptor inside the closed channel pore is severely restted.
The assay is conducted using rat brain membrane homogenates that are enriched in NMDA receptors. The membranes are prepared as follows. Frozen rat brains (obtained from Pel-Freez, Rogers, Arkansas) are homogenized in 15 volumes (w/v) of ice cold 0.32 M sucrose. The homogenate is spun at 1,000×g for ten minutes. The supernatant is collected and spun for 20 minutes at 44,000×g. The pellet is suspended in 15 volumes of water (relative to original brain weight). The homogenate is again spun at 44,000×g for twenty minutes. The pellet is resuspended in 5 volumes of water and the suspension is freeze-thawed 2 times. After the final thaw cycle, the suspension is brought to 15 volumes with water and spun at 44,000×g for twenty minutes. The pellet is resuspended in 5 volumes of ice-cold 10 mM HEPES, and is titrated to pH 7.4 with KOH containing 0.04% Triton X-100. Membranes are incubated with the Triton/HEPES buffer at 37° C. for 15 minutes. The volume is then brought to 15 with ice-cold 10 mM HEPES, pH 7.4, and spun/washed three times with spins of 44,000×g between washes. The final pellet is suspended in three volumes of 50 mM HEPES, pH 7.4, and the protein concentration is determined with a standard dye-binding protein assay (Bio-Rad, Richmond, Calif.). The suspension is stored at -80° C. until used. Only HPLC grade water is used for all buffers and suspensions/washings. The extensive washings are necessary to remove as much endogenous glycine from the membrane preparation as possible.
Nonspecific binding is defined as the difference in binding that occurs in the absence or presence of-PCP (final concentration: 100 μM). To determine the effect of 1 μM glycine on the binding of [^3 H]-MK801, bound radioactivity in the presence of 10 μM glutamate alone (final concentration) is subtracted from the bound radioactivity in the presence of both 10 μM glutamate and 1 μM glycine (final concentration). A 500 nM concentration (final) of 5,7-dichlorokynurenic (DCK) acid is added to all assay tubes. This concentration of the glycine antagonist DCK "buffers" most of the residual endogenous glycine that is not removed by the extensive washing steps that are carried out during the membrane preparation procedure.
The assays are incubated for 120 minutes at room temperature after which time the membrane-bound radioactivity is isolated from the free radioactivity by vacuum filtration through Whatman glass fiber filters that had been pretreated with 0.3% polyethyleneimine. Filtration is accomplished using a Brandel,48 well cell harvester. Filtered membranes are washed three times with 3 mL each of ice cold buffer. Filters are transferred to scintillation vials and 5 mL of scintillation cocktail is added. The vials are shaken overnight and the radioactivity is counted by liquid scintillation spectroscopy. The assays are done in triplicate and all experiments are conducted at least three times.

glycine binding site = glycine binding site (Rattus norvegicus, UniProt P35439); experiment: affinity for the glycine binding site / glycine/NMDA receptor (Ki; method not stated); conditions: for times less active than 6,7-dichloro-5-nitro-1,4-dihydroquinoxaline-2,3-dione at the glycine/NMDA receptor: from Ki
Text: The binding affinities of quinoxaline-2,3-diones at NMDA receptor glycine sites also were estimated by electrophysiological assays with either cloned rat NMDA receptors expressed in Xenopus oocytes, or non-NMDA receptors expressed in oocytes by whole rat brain poly(A)^+ RNA. […] For NMDA receptors Ki values were approximated by averaging values at three subtype combinations (NR1A/NR2A, NR1A/NR2B, and NR1A/NR2C).

[4] = penetration of the blood/brain barrier, access to the central nervous system; assay type: in vivo; conditions: inferred from Ki and MES ED50
mice = experiment: anticonvulsant activity in maximum electroshock seizure (MES) experiments in mice; assay type: in vivo, male Swiss/Webster mice; conditions: for ED50 / ED100: Mus musculus; for ED100 / ED50 (MES) / IV peak of action: Table IV
Method: The seizure stimulus parameters were: 50 mA, 60 Hz, rectangular pulse, width 0.8 msec, duration 200 msec. Tonic hind limb extension observed after application of the electrical stimulus was recorded as occurrence of seizure. The drug was applied i.v. as an aqueous Tris (Tromethamine) solution.

neurons = conditions: literature; cited from earlier work
animals = conditions: literature; cited from earlier work
[5] = system: non-NMDA glutamate receptors; conditions: literature; cited from earlier work
[6] = read-out: Ki, affinity for the glycine/NMDA receptor
[7] = iv, Table III, i.v. injection, read-out: ED50 (MES)
[8] = route not stated, read-out: ED50 as an anticonvulsant in the MES experiment in mice
[9] = Table II, footnote b, from binding assays, read-out: Ki

Q: Which results are given for `NC1CCN(O)C1=O` (racemic) [HA-966]?
A: penetration of the blood/brain barrier (words) ([1]; literature): sufficiently penetrates the blood/brain barrier; glycine site antagonism or affinity (words) [2]: partial agonist with only micromolar affinity for the glycine binding site

Q: With `Cc1c(Br)cc2nc(O)c(O)nc2c1[N+](=O)[O-]` [NO2 Me Br H, 7-Bromo-6-methyl-5-nitro-1,4-dihydroquinoxaline-2,3-dione] as the molecule, how does the Ki [3] read?
A: Its Ki is 40 nM.

Q: For `CCc1cc2nc(O)c(O)nc2c([N+](=O)[O-])c1Cl` [NO2 Cl Et H, 6-Chloro-7-ethyl-5-nitro-1,4-dihydroquinoxaline-2,3-dione], which Ki [3] is on record?
A: The Ki was 40 nM.

Q: For `O=c1[nH]c2cc(F)c(F)c([N+](=O)[O-])c2[nH]c1=O` [NO2 F F H, 6,7-Difluoro-5-nitro-1,4-dihydro-2,3-quinoxalinedione], which “times less active than 6,7-dichloro-5-nitro-1,4-dihydroquinoxaline-2,3-dione at the glycine/NMDA receptor” value (glycine binding site) is on record?
A: Its value is “more than 20 times”.

Q: And the Ki (glycine binding site; [6])?
A: Its Ki is 87 nM.

Q: What about the “times better in crossing the blood brain barrier than 6,7-dichloro-5-nitro-1,4-dihydroquinoxaline-2,3-dione” value [4] of the same molecule?
A: The value was “about 100 times”.

Q: And the ED50 (mice; [7])?
A: Its ED50 is 0.7 to 0.8 mg/kg.

Q: And the ED100 (mice; i.v.)?
A: Its ED100 is 2.5 mg/kg.

Q: And the ED50 (mice; [8])?
A: The ED50 was 0.7 to 0.8 mg/kg.

Q: What about the “ED50 (MES)” value (mice; i.v.) of the same molecule?
A: The value was 0.7 to 0.8 mg/kg.

Q: What about the “IV peak of action” value (mice; i.v.) of the same molecule?
A: The value was 1 min.

Q: What about the “% protection after 60 min.” value (mice; i.v., 2.5 mg/kg) of the same molecule?
A: Its value is 0%.

Q: And the “protection against MES after 60 min.” value (mice; i.v., after 60 min)?
A: The value was “no more protection was observed”.

Q: For `COc1ccc2c(c1)[C@]13CCCC[C@@H]1[C@H](C2)N(C)CC3` [dextromethorphan], which “neuroprotective efficacy” value (neurons) is on record?
A: The value was “have neuroprotective efficacy both in vitro and in vivo”.

Q: With `O=C(O)c1cc(O)c2c(Cl)cc(Cl)cc2n1` [5,7-dichlorokynurenic acid] as the molecule, how does the “penetration of the blood/brain barrier (words)” value ([1]; in vivo) read?
A: Its value is “cannot penetrate the blood/brain barrier”.

Q: And the “glycine site antagonism or affinity (words)” value [2]?
A: The value was “relatively high receptor binding affinity in vitro”.

Q: For `Cc1c(Cl)cc2nc(O)c(O)nc2c1N` [NH2 Me Cl H, 5-Amino-7-chloro-1,4-dihydro-6-methylquinoxaline-2,3-dione], which Ki [3] is on record?
A: Its Ki is 500 nM.

Q: Which Ki [3] does the source give for `CCc1c(Cl)cc2nc(O)c(O)nc2c1[N+](=O)[O-]` [NO2 Et Cl H, 7-Chloro-6-ethyl-5-nitro-1,4-dihydroquinoxaline-2,3-dione] here?
A: Its Ki is 200 nM.

Q: Which Ki [3] does the source give for `Cc1c([N+](=O)[O-])c([N+](=O)[O-])c(Cl)c2[nH]c(=O)c(=O)[nH]c12` [Cl NO2 NO2 Me, 5-Chloro-6,7-dinitro-8-methyl-2,3-quinoxalinedione] here?
A: Its Ki is 3800 nM.

Q: With `CCCCOc1c(F)cc2nc(O)c(O)nc2c1[N+](=O)[O-]` [NO2 OBu-n F H, 7-Fluoro-6-(n-butoxy)-5-nitro-1,4-dihydroquinoxaline-2,3-dione] as the molecule, how does the Ki [3] read?
A: The Ki was 6500 nM.

Q: With `c1ccc(C2(N3CCCCC3)CCCCC2)cc1` [PCP, phencyclidine] as the molecule, how does the “neuroprotective efficacy” value (neurons) read?
A: The value was “have neuroprotective efficacy both in vitro and in vivo”.

Q: For `COc1c(Cl)cc2[nH]c(=O)c(=O)[nH]c2c1[N+](=O)[O-]` [NO2 OMe Cl H, 7-Chloro-6-methoxy-5-nitro-1,4-dihydroquinoxaline-2,3-dione], which Ki [3] is on record?
A: The Ki was 450 nM.

Q: For `O=C(O)C1CC2CC(CP(=O)(O)O)CCC2CN1` (stereo not shown) [LY274614], which “neuroprotective efficacy” value (neurons) is on record?
A: The value was “have neuroprotective efficacy”.

Q: Which “penetration of the blood/brain barrier (words)” value ([1]; literature) does the source give for `O=C(O)c1cc2ccccc2[nH]1` [indole-2-carboxylic acid] here?
A: The value was “cannot penetrate the blood/brain barrier”.

Q: And the “glycine site antagonism or affinity (words)” value [2]?
A: The value was “relatively high receptor binding affinity in vitro”.

Q: Which Ki [3, 9] does the source give for `[N-]=[N+]=Nc1ccc2[nH]c(=O)c(=O)[nH]c2c1` [H N3 H H, 6-azidol-1,4-dihydroquinoxaline-2,3-dione] here?
A: The Ki was 910 nM.

Q: What about the “binding to the glycine binding site” value (glycine binding site; Table I, compared with other 6-substituted derivatives) of the same molecule?
A: The value was “quite favorably binds”.

Q: What about the Ki (glycine binding site; Table I, read-out: Ki) of the same molecule?
A: Its Ki is 210 nM.

Q: With `O=c1[nH]c2c(F)c(Cl)c(F)c([N+](=O)[O-])c2[nH]c1=O` [NO2 F Cl F, 7-Chloro-6,8-difluoro-5-nitro-1,4-dihydroquinoxaline-2,3-dione] as the molecule, how does the “times less active than 6,7-dichloro-5-nitro-1,4-dihydroquinoxaline-2,3-dione at the glycine/NMDA receptor” value (glycine binding site) read?
A: The value was “about 50 times”.

Q: And the Ki (glycine binding site; [6])?
A: The Ki was 170 nM.

Q: And the “times better in crossing the blood brain barrier than 6,7-dichloro-5-nitro-1,4-dihydroquinoxaline-2,3-dione” value [4]?
A: Its value is “about 100 times”.

Q: And the ED50 (mice; [7])?
A: Its ED50 is 2 to 3 mg/kg.

Q: What about the ED100 (mice; i.v.) of the same molecule?
A: Its ED100 is 5 mg/kg.

Q: And the ED50 (mice; [8])?
A: Its ED50 is 2 to 3 mg/kg.

Q: And the “ED50 (MES)” value (mice; i.v.)?
A: The value was 2 to 3 mg/kg.

Q: What about the “IV peak of action” value (mice; i.v.) of the same molecule?
A: The value was 2 to 5 min.

Q: What about the “% protection after 60 min.” value (mice; i.v., 5 mg/kg) of the same molecule?
A: The value was 50%.

Q: With `CNC1(c2ccccc2Cl)CCCCC1=O` (stereo not shown) [ketamine] as the molecule, how does the “neuroprotective efficacy” value (neurons) read?
A: Its value is “have neuroprotective efficacy both in vitro and in vivo”.

Q: For `O=C(O)[C@@H]1C[C@H](CP(=O)(O)O)CCN1` [CGS 19755], which “neuroprotective efficacy” value (neurons) is on record?
A: Its value is “have neuroprotective efficacy”.

Q: With `Cc1ccc2[nH]c(=O)c(=O)[nH]c2c1` [H Me H H, 6-Methyl-1,4-dihydro-2,3-quinoxalinedione] as the molecule, how does the Ki [3, 9] read?
A: The Ki was 9000 nM.

Q: Which Ki [3] does the source give for `CCc1cc2[nH]c(=O)c(=O)[nH]c2cc1CC` [H Et Et H, 6,7-Diethyl-1,4-dihydroquinoxaline-2,3-dione] here?
A: Its Ki is 800 nM.

Q: For `O=[N+]([O-])c1c(OCCCc2ccccc2)c(F)cc2nc(O)c(O)nc12` [NO2 O(CH2)3 Ph F H, 7-Fluoro-6(3-phenylpropoxy)-5-nitro-1,4-dihydroquinoxaline-2,3-dione], which Ki [3] is on record?
A: The Ki was 6700 nM.

Q: With `O=c1[nH]c2cc([N+](=O)[O-])cc([N+](=O)[O-])c2[nH]c1=O` [5,7-dinitro-1,4-dihydroquinoxaline-2,3-dione] as the molecule, how does the “penetration of the blood/brain barrier (words)” value ([1]; literature) read?
A: The value was “poor access to the central nervous system”.

Q: What about the “in vivo activity” value (animals) of the same molecule?
A: The value was “has anticonvulsant properties”.

Q: What about the “glycine site antagonism or affinity (words)” value [2] of the same molecule?
A: Its value is “potent-antagonist of the strychnine insensitive glycine receptor”.

Q: For `NS(=O)(=O)c1cccc2c1c([N+](=O)[O-])cc1nc(O)c(O)nc12` [2,3-dihydroxy-6-nitro-7-sulfamoyl-benzo (F) quinoxaline], which “antagonism at kainate / AMPA / non-NMDA receptors” value [5] is on record?
A: Its value is “AMPA selective”.

Q: And the “neuroprotective efficacy” value (neurons)?
A: Its value is “neuroprotective in cerebral ischemia models”.

Q: For `CCc1cc2[nH]c(=O)c(=O)[nH]c2cc1Cl` [H Cl Et H, 6-Chloro-7-ethyl-1,4-dihydroquinoxaline-2,3-dione], which Ki [3] is on record?
A: Its Ki is 730 nM.
